In publication PMC9395450, “Phase 1 study to evaluate the effects of rifampin on pharmacokinetics of pevonedistat, a NEDD8-activating enzyme inhibitor in patients with advanced solid tumors” (Investigational New Drugs, 2022):
Entries after “also recorded” stand apart in the source; their conditions may differ. Like-named read-outs stand apart in the source and are kept apart here.

How the values were obtained:
[1] = set-up: method as in PMID 33089874; conditions: following intravenous administration; ref [14]; cited from earlier work
[2] = set-up: method as in PMID 31355467; conditions: ref [15], cited from earlier work
[3] = Safety: treatment-emergent adverse events (NCI CTCAE v4.03), safety population; assay type: in vivo, human; conditions: N=20
Experimental: Safety was assessed by incidence and severity of treatment-emergent adverse events (TEAEs), vital signs, physical examinations, electrocardiograms, and clinical laboratory tests, and toxicities were graded according to the National Cancer Institute Common Terminology Criteria for Adverse Events (NCI CTCAE), version 4.03.
(§1) Pevonedistat PK was assessed in all patients who received the protocol-specified pevonedistat and rifampin doses in Part A, and had sufficient concentration–time data to permit reliable estimation of PK parameters (PK-evaluable population). PK data were summarized using descriptive statistics. For assessment of the effect of rifampin on pevonedistat PK, the ratios of geometric mean Cmax, AUClast and AUCinf of pevonedistat in the presence of rifampin on Day 10 versus in the absence of rifampin on Day 1 and associated 90% CI were calculated based on analysis of variance. Estimates for each PK parameter were obtained using a mixed effects model of log(PK parameter) with fixed terms for the rifampin effect and random terms for patient. Safety was assessed in all patients who received at least one dose of pevonedistat, and TEAEs were coded according to the Medical Dictionary for Regulatory Activities (MedDRA), version 20.0.

[4] = ref [10]–[13], cited from earlier work
[5] = Phase 1 drug-drug interaction study: single-dose pevonedistat plasma PK in the absence or presence of rifampin; assay type: in vivo, human; conditions: for AUC(0-t) / AUC(0-inf) / Cmax / clearance / Vd / half-life: human, plasma; for clearance: 50 mg/m2, plasma clearance, read-out: CL geometric mean (CV) (converted); for Vd: read-out: Vss geometric mean (CV); for half-life: read-out: t1/2z mean (SD) (converted)
Experimental: This was an open-label, multi-center study in adult patients with advanced solid tumors (NCT03486314). Eligible patients received a single 50 mg/m^2 pevonedistat dose via a 1-h infusion on Days 1 and 10, and daily oral dosing of rifampin 600 mg Days 3–11. Serial blood samples for the measurement of pevonedistat plasma concentrations were collected over 48 h following pevonedistat dosing. Pevonedistat PK parameters and ratios of geometric means for maximal plasma concentration (Cmax) and area under the plasma concentration versus time curve from time 0 to infinity (AUC0–inf) were calculated in the presence of rifampin (Day 10) and in reference to the absence of rifampin (Day 1), with associated 90% confidence intervals (CI) estimated using analysis of variance.
Serial blood samples for measuring pevonedistat concentrations were collected at intervals from 0 (predose) to 48 h after the single doses of pevonedistat on Day 1 and Day 10. Plasma samples were analyzed for pevonedistat concentrations using a previously reported validated liquid chromatography/mass spectrometry (LC–MS/MS) assay.
Pevonedistat PK parameters were calculated by noncompartmental analysis of the pevonedistat plasma concentration–time data using Phoenix WinNonlin version 8.1 (Certara, Princeton, NJ). The following single-dose PK parameters were derived: Cmax, AUC0-inf, AUC from time 0 to the last quantifiable concentration (AUC0–last), terminal disposition phase half-life (t1/2), clearance (CL), and volume of distribution at steady state (Vss).
as §1

[6] = set-up: method as in PMID 30845347; conditions: strong CYP3A/P-glycoprotein inhibitor itraconazole; ref [16]; cited from earlier work
[7] = most common TEAEs (≥ 15% of patients)
[8] = single dose 50 mg/m^2 ± rifampin
[9] = single dose 50 mg/m^2 ± rifampin, listed as Pevonedistat
[10] = iv, 50 mg/m2, single 50 mg/m^2 IV, in the absence of rifampin (Day 1), N=20
[11] = iv, 50 mg/m2, single 50 mg/m^2 IV, in the presence of rifampin (Day 10), N=17
[12] = presence of rifampin (Day 10) vs absence (Day 1)

NS(=O)(=O)OC[C@@H]1C[C@@H](n2ccc3c(N[C@H]4CCc5ccccc54)ncnc32)C[C@@H]1O [pevonedistat, Pevonedistat]
whole-blood-to-plasma ratio [1]: 40
PK dose linearity ([2]; dose range 25–278 mg/m^2): linear
impact of age, sex, tumor type, mild or moderate renal impairment (creatinine clearance ≥ 30 mL/min) on PK [2]: no impact
inter-patient variability in pevonedistat clearance [2]: approximately 30%
TEAE of hypersensitivity leading to interruption of study drug or permanent withdrawal, patients [3]: Two
TEAE decreased appetite, patients [3, 7]: 4 [20%] n [%]
TEAE diarrhea, patients [3, 7]: 3 [15%] n [%]
TEAE fatigue, patients [3, 7]: 3 [15%] n [%]
Drug-related TEAEs, Events [3, 8]: 14
Grade ≥ 3 TEAEs, Events [3, 8]: 17
Grade ≥ 3 drug related TEAEs, Events [3, 8]: 3
Grade ≥ 3 drug related TEAEs, Patients (%) [3, 8]: 3 (15%) n (%)
On-study deaths, Events [3, 8]: 1
Serious TEAEs leading to study drug discontinuation, Events [3, 8]: 1
Serious TEAEs leading to study drug discontinuation, Patients (%) [3, 8]: 1 (5.0) n (%)
Serious TEAEs, Events [3, 8]: 4
Serious TEAEs, Patients (%) [3, 8]: 3 (15%) n (%)
Serious TEAEs, drug related, Events [3, 8]: 1
Serious TEAEs, drug related, Patients (%) [3, 8]: 1 (5.0) n (%)
TEAEs leading to study drug discontinuation, Events [3, 8]: 1
TEAEs leading to study drug discontinuation, Patients (%) [3, 8]: 1 (5.0) n (%)
TEAEs leading to study drug dose delayed, Events [3, 8]: 0
TEAEs leading to study drug dose delayed, Patients (%) [3, 8]: 0 n (%)
TEAEs leading to study drug dose interruption, Events [3, 8]: 0
TEAEs leading to study drug dose interruption, Patients (%) [3, 8]: 0 n (%)
TEAEs leading to study drug dose reduction, Events [3, 8]: 0
TEAEs leading to study drug dose reduction, Patients (%) [3, 8]: 0 n (%)
TEAEs, Events [3, 8]: 82
TEAEs, Patients (%) [3, 8]: 16 (80%) n (%)
Drug-related TEAEs, Patients (%) [3, 9]: 9 (45.0) n (%)
Grade ≥ 3 TEAEs, Patients (%) [3, 9]: 7 (35.0) n (%)
Grade ≥ 3 drug related TEAEs, Patients (%) [3, 9]: 3 (15.0) n (%)
On-study deaths, Patients (%) [3, 9]: 1 (5.0) n (%)
Serious TEAEs, Patients (%) [3, 9]: 3 (15.0) n (%)
TEAEs, Patients (%) [3, 9]: 16 (80.0) n (%)
recommended dose for clinical investigation as a single agent ([4]; Days 1, 3 and 5 in 21-day cycles): 50 mg/m^2
maximum tolerated dose (MTD) ([4]; in combination with azacitidine): 20 mg/m^2
maximum tolerated dose (MTD) ([4]; in combination with carboplatin plus paclitaxel): 20 mg/m^2
maximum tolerated dose (MTD) ([4]; in combination with docetaxel): 25 mg/m^2
geometric mean AUClast in the presence of rifampin as % of that in the absence ([5]; Day 10 vs Day 1, 90% CI 68.4%–90.1%): 78.5%
geometric mean AUC∞ (AUC0–inf) in the presence of rifampin as % of that in the absence ([5]; Day 10 vs Day 1, 90% CI 69.2%–90.2%): 79%
geometric mean Cmax in the presence of rifampin as % of that in the absence ([5]; Day 10 vs Day 1, 90% CI 79.2%–117%): 96.2%
decrease in pevonedistat systemic exposure with rifampin ([5]; coadministration with rifampin): approximately 20%
AUC(0-t) ([5]; intravenous, 50 mg/m^2, mixed-effects model, in the absence of rifampin, N=20, read-out: AUClast LS mean): 2990 ng·h/mL
AUC(0-inf) ([5]; intravenous, 50 mg/m^2, mixed-effects model, in the absence of rifampin, N=20, read-out: AUC∞ LS mean): 3030 ng·h/mL
Cmax ([5]; intravenous, 50 mg/m^2, mixed-effects model, in the absence of rifampin, N=20, read-out: Cmax LS mean): 602 ng/mL
AUC(0-t) ([5]; intravenous, mixed-effects model, in the presence of rifampin, N=17, read-out: AUClast LS mean): 2340 ng·h/mL
AUC(0-inf) ([5]; intravenous, mixed-effects model, in the presence of rifampin, N=17, read-out: AUC∞ LS mean): 2390 ng·h/mL
Cmax ([5]; intravenous, mixed-effects model, in the presence of rifampin, N=17, read-out: Cmax LS mean): 579 ng/mL
clearance ([5]; iv, single 50 mg/m^2 IV, in the absence of rifampin (Day 1), N=20): 550 mL/min
clearance ([5]; iv, single 50 mg/m^2 IV, in the presence of rifampin (Day 10), N=17): 692 mL/min
AUC(0-t) ([5]; iv, 50 mg/m2, single 50 mg/m^2 IV, in the absence of rifampin (Day 1), N=20, read-out: AUClast geometric mean (CV)): 2990 ng·h/mL
AUC(0-inf) ([5]; iv, 50 mg/m2, single 50 mg/m^2 IV, in the absence of rifampin (Day 1), N=20, read-out: AUC∞ geometric mean (CV)): 3030 ng·h/mL
Vd [5, 10]: 278 L
half-life [5, 10]: ~7 h
AUC(0-t) ([5]; iv, 50 mg/m2, single 50 mg/m^2 IV, in the presence of rifampin (Day 10), N=17, read-out: AUClast geometric mean (CV)): 2330 ng·h/mL
AUC(0-inf) ([5]; iv, 50 mg/m2, single 50 mg/m^2 IV, in the presence of rifampin (Day 10), N=17, read-out: AUC∞ geometric mean (CV)): 2370 ng·h/mL
Vd [5, 11]: 265 L
half-life [5, 11]: 5.7 h
Cmax ([5]; single 50 mg/m^2 1-h IV infusion, in the absence of rifampin (Day 1), N=20, read-out: Cmax geometric mean (CV)): 602 ng/mL
Cmax ([5]; single 50 mg/m^2 1-h IV infusion, in the presence of rifampin 600 mg daily (Day 10), N=17, read-out: Cmax geometric mean (CV)): 564 ng/mL
CL geometric mean (CV) ([5]; plasma clearance, single 50 mg/m^2 IV, in the absence of rifampin (Day 1), N=20): 33.1 (31.2%) L/h
AUClast LS mean ratio (90% CI) [5, 12]: 0.785 (0.684–0.901)
AUC∞ LS mean ratio (90% CI) [5, 12]: 0.790 (0.692–0.902)
Cmax LS mean ratio (90% CI) [5, 12]: 0.962 (0.792–1.17)
t1/2z mean (SD) ([5]; single 50 mg/m^2 IV, in the absence of rifampin (Day 1), N=20): 7.4 (1.4) h
effect of itraconazole on pevonedistat systemic exposure / PK [6]: no clinically relevant effects; also recorded: did not result in clinically meaningful increase
